Measurements: the supplement of paper PMC11061612

Legend:
Test in all cases: Bliss excess, mean over the matrix (fraction); higher = more synergy
[1] = test system: LoVo (Colorectal Carcinoma)
Summary of the method: (§1)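 Bliss excess equals the observed combination effect minus the expected value EA + EB − EA·EB, where EA and EB are the effects of each agent alone. Combination Emax is the second-highest inhibition within the matrix. Inhibition was scaled from CellTiter-Glo 2.0 luminescence, with 0 set by vehicle wells and 1 by blank wells, after 72 hours of two-drug dosing of cells plated in 1536-well plates.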

[2] = test system: OC-314 (Ovarian Carcinoma)
Summary of the method: as §1

NB14 (Neuroblastoma) = test system: NB14 (Neuroblastoma)
Summary of the method: as §1

[3] = test system: HARA (Squamous Cell Lung Carcinoma)
Summary of the method: as §1

[4] = test system: NCI-H69 (Small Cell Lung Carcinoma)
Summary of the method: as §1

[5] = test system: CAPAN-1 (Pancreatic Carcinoma)
Summary of the method: as §1

Mewo (Melanoma) = test system: Mewo (Melanoma)
Summary of the method: as §1

[6] = test system: SK-OV-3 (Ovarian Carcinoma)
Summary of the method: as §1

[7] = test system: SW1271 (Small Cell Lung Carcinoma)
Summary of the method: as §1

[8] = test system: LU-139 (Small Cell Lung Carcinoma)
Summary of the method: as §1

[9] = test system: K5 (Thyroid Gland Carcinoma)
Summary of the method: as §1

[10] = test system: CAL-54 (Kidney Carcinoma)
Summary of the method: as §1

[11] = test system: RKO (Colorectal Carcinoma)
Summary of the method: as §1

[12] = test system: RPMI-6666 (Non-Cancerous)
Summary of the method: as §1

[13] = test system: EN (Endometrial Carcinoma)
Summary of the method: as §1

[14] = test system: SUP-T1 (T-Lymphoblastic Leukemia)
Summary of the method: as §1

[15] = test system: PCI-30 (Head and Neck Carcinoma)
Summary of the method: as §1

[16] = test system: RT-112 (Bladder Carcinoma)
Summary of the method: as §1

NCI-H28 (Mesothelioma) = test system: NCI-H28 (Mesothelioma)
Summary of the method: as §1

SH-4 (Melanoma) = test system: SH-4 (Melanoma)
Summary of the method: as §1

Row | SMILES | Bliss excess [1] | Bliss excess [2] | Bliss excess (NB14 (Neuroblastoma)) | Bliss excess [3] | Bliss excess [4] | Bliss excess [5] | Bliss excess (Mewo (Melanoma)) | Bliss excess [6] | Bliss excess [7] | Bliss excess [8] | Bliss excess [9] | Bliss excess [10] | Bliss excess [11] | Bliss excess [12] | Bliss excess [13] | Bliss excess [14] | Bliss excess [15] | Bliss excess [16] | Bliss excess (NCI-H28 (Mesothelioma)) | Bliss excess (SH-4 (Melanoma))
1 | CN(CCO)CC[C@H](CSc1ccccc1)Nc1ccc(S(=O)(=O)NC(=O)c2ccc(N3CCC([C@@H](O)c4ccccc4-c4ccc(Cl)cc4)CC3)cc2)cc1S(=O)(=O)C(F)(F)F [AZD4320] + Nc1ccn([C@@H]2O[C@H](CO)[C@@H](O)C2(F)F)c(=O)n1 [Gemcitabine] (first compound max 1 µM, 7x7, partner max 0.3 µM) | -0.0476 | 0.0434 | 0.0314 | -0.0498 | -0.0064 | 0.0166 | 0.0099 | -0.0695 | 0.0692 | 0.0388 | 0.0121 | -0.0034 | -0.0195 | -0.0051 | -0.0382 | 0.0225 | -0.0272 | -0.0057 | 0.0018 | 0.0224
2 | O=C(c1cc(Cc2n[nH]c(=O)c3ccccc23)ccc1F)N1CCN(C(=O)C2CC2)CC1 [Olaparib] + COc1nnc2ccc(N3CCC(c4ccc(OCCN5CCN(C)C(=O)[C@H]5C)cc4)CC3)nn12 [AZD5153] (first compound max 10 µM, 7x7, partner max 1 µM) | -0.0338 | -0.0341 | -0.004 | -0.0775 | 0.0144 | -0.0573 | -0.074 | -0.0296 | -0.0668 | -0.0194 | -0.0392 | -0.0923 | -0.0893 | -0.0487 | -0.0427 | -0.0512 | -0.0144 | -0.0332 | -0.0529 | -0.11
3 | O=C(c1cc(Cc2n[nH]c(=O)c3ccccc23)ccc1F)N1CCN(C(=O)C2CC2)CC1 [Olaparib] + CN(CC[C@H](CSC1=CC=CC=C1)NC2=C(C=C(C=C2)S(=O)(=O)NC(=O)C3=CC=C(C=C3)N4CCC(CC4)[C@H](C5=CC=CC=C5C6=CC=C(C=C6)Cl)O)S(=O)(=O)C(F)(F)F)CCO [AZD4320] (first compound max 10 µM, 7x7, partner max 1 µM) | -0.0225 | -0.0165 | 0.0027 | -0.0379 | 0.0294 | -0.0347 | -0.0615 | -0.0672 | -0.0291 | 0.0154 | -0.0148 | -0.0021 | -0.0252 | 0.0694 | -0.0184 | -0.0301 | -0.0405 | -0.0305 | -0.0353 | -0.0505
4 | Cc1cc2ncnn2cc1Nc1ncc2c(n1)n(C1CCOCC1)c(=O)n2C [AZD7648] + COc1cc([C@@H]2c3cc4c(cc3[C@@H](O[C@@H]3O[C@@H]5CO[C@@H](C)O[C@H]5[C@H](O)[C@H]3O)[C@H]3COC(=O)[C@H]23)OCO4)cc(OC)c1O [Etoposide] (first compound max 10 µM, 7x7, partner max 10 µM) | 0.0689 | 0.152 | 0.0704 | 0.105 | 0.0783 | -0.0034 | 0.0524 | -0.0497 | 0.0441 | 0.101 | 0.1 | 0.0605 | 0.135 | 0.0224 | 0.0565 | 0.07 | 0.0768 | 0.17 | 0.0548 | 0.0744
5 | O=C(c1cc(Cc2n[nH]c(=O)c3ccccc23)ccc1F)N1CCN(C(=O)C2CC2)CC1 [Olaparib] + Cc1c2c(nn1C)CSCc1cc(n(C)n1)CSc1cc(c3ccccc3c1)OCCCc1c(C(=O)O)n(C)c3c-2c(Cl)ccc13 [AZD5991] (first compound max 10 µM, 7x7, partner max 1 µM) | -0.0591 | -0.0142 | -0.0183 | -0.0358 | 0.0008 | -0.0392 | -0.0652 | -0.06 | -0.0523 | -0.0263 | -0.0563 | -0.0272 | -0.0205 | 0.017 | -0.016 | -0.0286 | -0.048 | 0.0048 | -0.0349 | -0.0412
6 | C[C@@H]1COCCN1c1cc(C2([S@](C)(=N)=O)CC2)nc(-c2ccnc3[nH]ccc23)n1 [AZD6738] + C1CC(C1)(C(=O)[O-])C(=O)[O-].N.N.[Pt+2] [Carboplatin] (first compound max 10 µM, 7x7, partner max 10 µM) | -0.0743 | -0.03 | -0.0044 | -0.0226 | -0.032 | -0.0624 | -0.0192 | -0.0788 | -0.0547 | 0.0013 | -0.0728 | -0.0355 | -0.0594 | -0.0614 | -0.0335 | -0.0298 | -0.0362 | -0.0217 | -0.0606 | -0.057
7 | N#Cc1cnc(Nc2cc(NC[C@H]3CNCCO3)c(C(F)(F)F)cn2)cn1 [SRA737] + C=CCn1c(=O)c2cnc(Nc3ccc(N4CCN(C)CC4)cc3)nc2n1-c1cccc(C(C)(C)O)n1 [AZD1775] (first compound max 10 µM, partner max 1 µM) | 0.0837 | 0.165 | 0.0644 | 0.0442 | 0.0231 | -0.0663 | -0.0149 | -0.0357 | -0.0045 | -0.0015 | -0.0051 | 0.0005 | 0.0536 | -0.0021 | 0.0422 | -0.0003 | 0.116 | 0.107 | 0.0829 | 0.0688
8 | Cc1c2c(nn1C)CSCc1cc(n(C)n1)CSc1cc(c3ccccc3c1)OCCCc1c(C(=O)O)n(C)c3c-2c(Cl)ccc13 [AZD5991] + CS(=O)(=O)CCNCc1ccc(-c2ccc3ncnc(Nc4ccc(OCc5cccc(F)c5)c(Cl)c4)c3c2)o1 [Lapatinib] (first compound max 1 µM, 7x7, partner max 10 µM) | -0.0052 | 0.0453 | 0.0335 | 0.0632 | -0.0745 | -0.0147 | -0.013 | 0.0591 | -0.0749 | -0.0068 | -0.0063 | 0.0368 | 0.0196 | -0.1 | -0.0129 | -0.0863 | 0.0446 | 0.0426 | 0.0147 | -0.01
9 | C[C@@H](Oc1cc(-c2cnn(C3CCNCC3)c2)cnc1N)c1c(Cl)ccc(F)c1Cl [Crizotinib] + Cn1cnc2c(F)c(Nc3ccc(Br)cc3Cl)c(C(=O)NOCCO)cc21 [Selumetinib] (first compound max 10 µM, 7x7, partner max 10 µM) | -0.0546 | -0.0354 | 0.0218 | -0.0366 | -0.0607 | -0.046 | -0.0431 | -0.0479 | 0.0503 | -0.0615 | -0.0788 | -0.0135 | 0.122 | -0.0622 | -0.0542 | -0.0501 | -0.0206 | -0.043 | -0.0004 | -0.0768
10 | C[C@@H](Nc1cc(F)cc(F)c1)c1cc(C(=O)N(C)C)cc2c(=O)cc(N3CCOCC3)oc12 [AZD8186] + C1CN(CCC1(C(=O)N[C@@H](CCO)C2=CC=C(C=C2)Cl)N)C3=NC=NC4=C3C=CN4 [AZD5363] (first compound max 10 µM, 7x7, partner max 10 µM) | -0.0372 | 0.0624 | -0.0318 | -0.0301 | -0.0566 | -0.0755 | -0.001 | -0.064 | -0.0388 | -0.0299 | -0.062 | -0.0774 | 0.0284 | -0.086 | 0.0157 | -0.0718 | -0.0443 | -0.0188 | -0.0165 | -0.0317
11 | N#Cc1cnc(Nc2cc(NC[C@H]3CNCCO3)c(C(F)(F)F)cn2)cn1 [SRA737] + Nc1ccn([C@@H]2O[C@H](CO)[C@@H](O)C2(F)F)c(=O)n1 [Gemcitabine] (first compound max 10 µM, 7x7, partner max 0.3 µM) | -0.0137 | 0.108 | 0.0218 | -0.0013 | -0.0077 | -0.0582 | -0.0047 | 0.0128 | 0.0198 | 0.0091 | 0.0428 | -0.0458 | -0.0179 | -0.0487 | -0.0331 | -0.0658 | -0.0288 | 0.178 | 0.0118 | 0.0138
